Here are results for 23 compounds from patent US10435399B2, “HDAC6 inhibitory heterocyclic compound” (TAKEDA PHARMACEUTICAL COMPANY LIMITED, priority 2017, dated 2019).

This test addresses T1, HDAC6 enzyme (Homo sapiens, UniProt Q9UBN7).
T1 construct: transducing full length HDAC6 gene into Sf-9 insect cells; GST; purchased SignalChem; host or cells: Sf-9 insect cells
T1 sequence (Q9UBN7 1-1215): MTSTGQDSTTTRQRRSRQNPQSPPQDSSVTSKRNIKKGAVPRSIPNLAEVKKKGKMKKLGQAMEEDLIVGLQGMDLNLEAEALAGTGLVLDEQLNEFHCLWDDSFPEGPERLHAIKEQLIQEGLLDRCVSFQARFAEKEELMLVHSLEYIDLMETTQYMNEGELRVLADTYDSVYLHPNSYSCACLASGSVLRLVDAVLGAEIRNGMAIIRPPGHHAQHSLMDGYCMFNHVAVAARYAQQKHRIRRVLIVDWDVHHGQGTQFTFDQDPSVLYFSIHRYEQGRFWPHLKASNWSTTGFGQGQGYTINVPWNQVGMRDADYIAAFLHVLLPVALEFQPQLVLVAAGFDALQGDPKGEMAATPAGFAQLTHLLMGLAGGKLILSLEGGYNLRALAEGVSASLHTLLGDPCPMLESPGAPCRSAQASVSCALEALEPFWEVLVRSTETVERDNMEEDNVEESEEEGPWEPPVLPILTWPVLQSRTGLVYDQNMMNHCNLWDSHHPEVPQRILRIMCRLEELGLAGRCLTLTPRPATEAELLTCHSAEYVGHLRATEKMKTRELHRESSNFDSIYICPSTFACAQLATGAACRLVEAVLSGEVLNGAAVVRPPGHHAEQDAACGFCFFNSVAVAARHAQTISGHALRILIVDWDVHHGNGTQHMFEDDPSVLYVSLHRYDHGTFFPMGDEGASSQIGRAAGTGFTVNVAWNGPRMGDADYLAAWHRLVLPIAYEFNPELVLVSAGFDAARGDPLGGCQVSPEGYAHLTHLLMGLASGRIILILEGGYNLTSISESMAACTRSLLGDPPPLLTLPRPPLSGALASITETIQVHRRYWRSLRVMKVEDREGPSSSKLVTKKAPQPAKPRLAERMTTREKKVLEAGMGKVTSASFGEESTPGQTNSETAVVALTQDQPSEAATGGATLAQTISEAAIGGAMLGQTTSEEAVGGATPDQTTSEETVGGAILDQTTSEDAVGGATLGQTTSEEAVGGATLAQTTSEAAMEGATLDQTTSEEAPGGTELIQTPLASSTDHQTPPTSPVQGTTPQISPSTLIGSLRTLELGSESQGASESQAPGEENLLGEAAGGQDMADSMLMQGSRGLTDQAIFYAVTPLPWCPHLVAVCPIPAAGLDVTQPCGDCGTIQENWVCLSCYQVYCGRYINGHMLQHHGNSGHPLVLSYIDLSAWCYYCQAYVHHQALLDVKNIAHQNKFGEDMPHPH
Briefly: HDAC6 enzyme inhibitory activity (HDAC-Glo I/II Assay kit). It counts as biochemical. The following applies: 10 μM; wells without enzyme = 100% inhibition; read-out: HDAC6 inhibitory rate (%) (10 μM). Summed up:
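Full-length human HDAC6 (GST-purified, Sf-9 expressed) preincubated with compound 60 min at room temperature in Tris-HCl pH 7.5 buffer with MgCl2, KCl, NaCl, glutathione, Tween-20. HDAC-Glo I/II substrate-developer then added, 20 min room temperature, luminescence read. Inhibition relative to no-enzyme wells as 100%.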

Turning to `O=C1c2cc(-c3nnc(C(F)F)o3)cc(F)c2CN1[C@@H]1COCC[C@H]1NCC(F)(F)F` [Example 361, 6-(5-(difluoromethyl)-1,3,4-oxadiazol-2-yl)-4-fluoro-2-((3S,4R)-4-((2,2,2-trifluoro-ethyl)amino)tetrahydro-2H-pyran-3-yl)isoindolin-1-one], the inhibition at 10 µM was determined as 101%.

Consider `O=C1c2cc(-c3nnc(C(F)F)o3)cnc2CN1Cc1ccccn1` [Example 362, 3-(5-(difluoromethyl)-1,3,4-oxadiazol-2-yl)-6-(pyridin-2-yl-methyl)-6,7-dihydro-5H-pyrrolo[3,4-b]pyridin-5-one], for which the inhibition at 10 µM came to 99%.

In the case of `CC(C)(C)OC(=O)N[C@H]1COCC[C@H]1N1Cc2c(F)cc(-c3nnc(C(F)F)o3)cc2C1=O` [Example 363, tert-butyl ((3R,4R)-4-(6-(5-(difluoromethyl)-1,3,4-oxadiazol-2-yl)-4-fluoro-1-oxo-1,3-dihydro-2H-isoindol-2-yl)tetrahydro-2H-pyran-3-yl)carbamate], the inhibition at 10 µM was determined as 99%.

Consider `N[C@H]1COCC[C@H]1N1Cc2c(F)cc(-c3nnc(C(F)F)o3)cc2C1=O` [Example 364, 2-((3R,4R)-3-amino-tetrahydro-2H-pyran-4-yl)-6-(5-(difluoromethyl)-1,3,4-oxadiazol-2-yl)-4-fluoroisoindolin-1-one], for which the inhibition at 10 µM was 87%.

Turning to `O=C1c2cc(-c3nnc(C(F)F)o3)cc(F)c2CN1[C@@H]1CCOC[C@@H]1NC(=O)C(F)(F)C(F)(F)F` [Example 365, N-((3R,4R)-4-(6-(5-(difluoromethyl)-1,3,4-oxadiazol-2-yl)-4-fluoro-1-oxo-1,3-dihydro-2H-isoindol-2-yl)tetrahydro-2H-pyran-3-yl)-2,2,3,3,3-pentafluoropropanamide], the inhibition at 10 µM amounted to 101%.

For the compound `CC(F)(F)C(=O)N[C@H]1COCC[C@H]1N1Cc2c(F)cc(-c3nnc(C(F)F)o3)cc2C1=O` [Example 366, N-((3R,4R)-4-(6-(5-(difluoromethyl)-1,3,4-oxadiazol-2-yl)-4-fluoro-1-oxo-1,3-dihydro-2H-isoindol-2-yl)tetrahydro-2H-pyran-3-yl)-2,2-difluoropropanamide], the inhibition at 10 µM is 97%.

On to `O=C1c2cc(-c3nnc(C(F)F)o3)cnc2CN1[C@@H]1CCCC[C@H]1NCC(F)(F)F` [Example 367, 3-(5-(difluoromethyl)-1,3,4-oxadiazol-2-yl)-6-((1R,2R)-2-((2,2,2-trifluoroethyl)amino)-cyclohexyl)-6,7-dihydro-5H-pyrrolo[3,4-b]pyridin-5-one], for which the inhibition at 10 µM was 101%.

Turning to `Cn1cc(-c2cccc(C#N)c2)c(N2Cc3ccc(-c4nnc(C(F)F)o4)cc3C2=O)n1` [Example 368, 3-(3-(6-(5-(difluoromethyl)-1,3,4-oxadiazol-2-yl)-1-oxo-1,3-dihydro-2H-isoindol-2-yl)-1-methyl-1H-pyrazol-4-yl)benzonitrile], the inhibition at 10 µM came to 99%.

On to `Cn1cc(-c2cccc(Cl)c2)c(N2Cc3ccc(-c4nnc(C(F)F)o4)cc3C2=O)n1` [Example 369, 2-(4-(3-chlorophenyl)-1-methyl-1H-pyrazol-3-yl)-6-(5-(difluoro-methyl)-1,3,4-oxadiazol-2-yl)isoindolin-1-one], for which the inhibition at 10 µM turned out to be 99%.

For `O=C1c2cc(-c3nnc(C(F)F)o3)cnc2CN1Cc1cccc(C(F)F)c1` [Example 370, 6-(3-(difluoromethyl)benzyl)-3-(5-(difluoro-methyl)-1,3,4-oxadiazol-2-yl)-6,7-dihydro-5H-pyrrolo[3,4-b]pyridin-5-one], the inhibition at 10 µM is 101%.

In the case of `O=C1c2cc(-c3nnc(C(F)F)o3)cc(F)c2CN1C1(CNS(=O)(=O)CC(F)(F)F)CCCCC1` [Example 371, N-((1-(6-(5-(difluoro-methyl)-1,3,4-oxadiazol-2-yl)-4-fluoro-1-oxo-1,3-dihydro-2H-isoindol-2-yl)cyclohexyl)methyl)-2,2,2-trifluoroethane-sulfonamide], the inhibition at 10 µM came to 99%.

`O=C1c2cc(-c3nnc(C(F)F)o3)cc(F)c2CN1c1ccccc1Br` [Example 372, 2-(2-bromophenyl)-6-(5-(difluoromethyl)-1,3,4-oxadiazol-2-yl)-4-fluoroisoindolin-1-one]: the inhibition at 10 µM came to 92%.

For the compound `O=C1c2cc(-c3nnc(C(F)F)o3)ccc2CN1c1cccc(F)c1Br` [Example 373, 2-(2-bromo-3-fluorophenyl)-6-(5-(difluoromethyl)-1,3,4-oxadiazol-2-yl)isoindolin-1-one], the inhibition at 10 µM was determined as 97%.

`O=C1c2cc(-c3nnc(C(F)F)o3)cc(F)c2CN1[C@@H]1CCOC[C@@H]1NCC(F)(F)F` [Example 374, 6-(5-(difluoromethyl)-1,3,4-oxadiazol-2-yl)-4-fluoro-2-((3R,4R)-3-((2,2,2-trifluoroethyl)amino)tetrahydro-2H-pyran-4-yl)isoindolin-1-one]: the inhibition at 10 µM worked out at 99%.

On to `O=C1c2cc(-c3nnc(C(F)F)o3)cc(F)c2CN1[C@@H]1CCOC[C@@H]1NCC(F)(F)C(F)(F)F` [Example 375, 6-(5-(difluoromethyl)-1,3,4-oxadiazol-2-yl)-4-fluoro-2-((3R,4R)-3-((2,2,3,3,3-pentafluoropropyl)amino)tetrahydro-2H-pyran-4-yl)isoindolin-1-one], for which the inhibition at 10 µM came out at 101%.

For `N#Cc1cccc(-c2ccccc2N2Cc3c(F)cc(-c4nnc(C(F)F)o4)cc3C2=O)c1` [Example 376, 2′-(6-(5-(difluoro-methyl)-1,3,4-oxadiazol-2-yl)-4-fluoro-1-oxo-1,3-dihydro-2H-isoindol-2-yl)biphenyl-3-carbonitrile], the inhibition at 10 µM stood at 101%.

Take `N#Cc1cccc(-c2c(F)cccc2N2Cc3ccc(-c4nnc(C(F)F)o4)cc3C2=O)c1` [Example 377, 2′-(6-(5-(difluoro-methyl)-1,3,4-oxadiazol-2-yl)-1-oxo-1,3-dihydro-2H-isoindol-2-yl)-6′-fluorobiphenyl-3-carbonitrile]: the inhibition at 10 µM came out at 101%.

As for `N#Cc1cccc(-c2cc(F)ccc2N2Cc3c(F)cc(-c4nnc(C(F)F)o4)cc3C2=O)c1` [Example 378, 2′-(6-(5-(difluoro-methyl)-1,3,4-oxadiazol-2-yl)-4-fluoro-1-oxo-1,3-dihydro-2H-isoindol-2-yl)-5′-fluorobiphenyl-3-carbonitrile], the inhibition at 10 µM was found to be 99%.

With `O=C1c2cc(-c3nnc(C(F)F)o3)cc(F)c2CN1C[C@@H]1CCCN1C(=O)C1CC1` [Example 379, 2-(((2S)-1-(cyclopropyl-carbonyl)pyrrolidin-2-yl)methyl)-6-(5-(difluoromethyl)-1,3,4-oxadiazol-2-yl)-4-fluoro-isoindolin-1-one], the inhibition at 10 µM came to 97%.

For the compound `O=C1c2cc(-c3nnc(C(F)F)o3)cc(F)c2CN1C[C@@H]1CCCN1S(=O)(=O)CC(F)(F)F` [Example 380, 6-(5-(difluoro-methyl)-1,3,4-oxadiazol-2-yl)-4-fluoro-2-(((2S)-1-((2,2,2-trifluoroethyl)sulfonyl)pyrrolidin-2-yl)methyl) isoindolin-1-one], the inhibition at 10 µM was found to be 99%.

With `O=C1c2cc(-c3nnc(C(F)F)o3)cc(F)c2CN1c1ccc(F)cc1-c1cnn(C(F)F)c1` [Example 381, 6-(5-(difluoro-methyl)-1,3,4-oxadiazol-2-yl)-2-(2-(1-(difluoro-methyl)-1H-pyrazol-4-yl)-4-fluorophenyl)-4-fluoroisoindolin-1-one], the inhibition at 10 µM came to 100%.

In the case of `Cn1cc(-c2cc(F)ccc2N2Cc3c(F)cc(-c4nnc(C(F)F)o4)cc3C2=O)cn1` [Example 382, 6-(5-(difluoro-methyl)-1,3,4-oxadiazol-2-yl)-4-fluoro-2-(4-fluoro-2-(1-methyl-1H-pyrazol-4-yl)phenyl) isoindolin-1-one], the inhibition at 10 µM came to 98%.

As to `O=C1c2cc(-c3nnc(C(F)F)o3)cc(F)c2CN1c1ccc(F)cc1-c1cccc(F)c1` [Example 383, 2-(3′,5-difluoro-biphenyl-2-yl)-6-(5-(difluoro-methyl)-1,3,4-oxadiazol-2-yl)-4-fluoroiso-indolin-1-one], the inhibition at 10 µM amounted to 95%.
